Data as given in US10787413B2, “Derivatives of curcuminoids and use thereof as an anticancer agent” (CHINA MEDICAL UNIVERSITY, priority 2016, dated 2020).

Key:
MDA-MB-157 = test: Cell viability, MDA-MB-157 breast cancer cells; type: cell-based; details: Homo sapiens; MDA-MB-157 (Triple negative), treated for 24 h
Method: (§1) Cell viability was evaluated by measuring the reduction in MTT to yield blue formazan. Cells were cultured in 96-well plates, allowed to attach overnight, and then treated with compounds. After treatment, MTT solution (1 mg/ml) was added to each well, and plates were incubated for another 4 h. Medium were removed, blue formazan was dissolved in DMSO, and the absorbance was read at 570 nm^20.

MDA-MB-231 cells = test: Cell morphology, phase-contrast microscope; type: cell-based, human; details: 10 μM, 24 h
Text: For morphological observations, cells were visualized and photographed using a phase-contrast microscope equipped with a digital camera (Leica Microsystems, Wetzlar, Germany)^21.

HS-578T = test: Cell viability, HS-578T breast cancer cells; type: cell-based; details: Homo sapiens; HS-578T (Triple negative), treated for 24 h
Method: as §1

Structure (SMILES): COc1cc(/C=C/C(=O)/C=C(O)/C=C/c2ccc(OC(=O)C(C)(CO)CO)c(OC)c2)ccc1OC(=O)C(C)(CO)CO [Compound 21a, ((1E,3Z,6E)-3-Hydroxy-5-oxohepta-1,3,6-triene-1,7-diyl)bis(2-methoxy-4,1-phenylene) bis(3-hydroxy-2-(hydroxymethyl)-2-methylpropenoate)]
- IC50 (MDA-MB-157): 9.23 ± 0.11 µM
- cell morphology (MDA-MB-231 cells): caused breast cancer cell apoptosis and autophagy
- IC50 (HS-578T): 7.96 ± 0.27 µM
